From PMC11645656, “MRGPRX4 mediates phospho-drug associated pruritus in a humanized mouse model” (Science translational medicine, 2024)
Several values for one entry are separate records, joined by “and”; a condition that tells them apart may be missing. Identical values can stand only once.

Experiments:
[1] = system: NP2-X4+ mice (MRGPRX4 in Mrgpra3+ NP2 sensory neurons); test: Itch behavioral study (scratching bouts after subcutaneous nape injection) in NP2-X4+ mice; assay type: in vivo, mouse
[2] = target: T1, MRGPRX4 R82A (Homo sapiens, UniProt Q96LA9, L83S/R82A); test: Calcium mobilization assay (FLIPR), MRGPRX4 R82A mutant; assay type: cell-based
T1 construct: expressed in transfected cells; host or cells: HEK293T, transient
T1 sequence (Q96LA9 whole entry R82A/L83S): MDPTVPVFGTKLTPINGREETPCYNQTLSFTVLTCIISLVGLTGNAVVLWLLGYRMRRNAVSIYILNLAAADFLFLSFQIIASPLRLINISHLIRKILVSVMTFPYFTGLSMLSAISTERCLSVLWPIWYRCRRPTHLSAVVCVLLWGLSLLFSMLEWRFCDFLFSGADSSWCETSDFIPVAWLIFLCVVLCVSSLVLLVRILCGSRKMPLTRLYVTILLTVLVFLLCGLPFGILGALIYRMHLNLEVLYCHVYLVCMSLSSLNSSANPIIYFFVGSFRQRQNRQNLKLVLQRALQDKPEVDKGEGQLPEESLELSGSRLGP
Description: (§1) Fig. 3. […] (A) Cryo-EM density map of MRGPRX4-Gq in complex with fospropofol. (B) The density map of fospropofol and R82 of MRGPRX4. (C and D) Key molecular interactions between fospropofol and the hydrophilic (C) and hydrophobic (D) part of the agonist binding pocket of MRGPRX4. Amino acid residues interacting with fospropofol are shown as sticks. Hydrogen bond is shown as cyan dashed lines. […] Data are from at least three independent experiments, each performed in triplicate, and reported as the mean ± SEM. (E) and (F) were collected from the same sets of experiments.
(§2) To generate murine Mrgprs expressing cells, HEK293T cells (ATCC) were seeded on poly-D-lysine coated 96 well plate at 25,000 cells per well one day prior to transfection. HEK293T cells were transiently co-transfected with the mammalian expression plasmids carrying cDNA encoding the murine Mrgpr genes and plasmid inserted with cDNA encoding murine α-subunit of the heterotrimeric G15 protein (Gα15) in triplicates using Lipofectamine LTX reagents (Thermo Scientific). To generate WT, S83L, and alanine mutant MRGPRX4-expressing cells, HEK293T cells were seeded on poly-D-lysine coated 384 well plate at 12,000 cells per well one day prior to transfection. […]

[3] = target: T2, MRGPRX4 R86A (Homo sapiens, UniProt Q96LA9, L83S/R86A); test: Calcium mobilization assay (FLIPR), MRGPRX4 R86A mutant; assay type: cell-based
T2 construct: expressed in transfected cells; host or cells: HEK293T, transient
T2 sequence (Q96LA9 whole entry L83S/R86A): as the sequence (Q96LA9 whole entry R82A/L83S) above, with A82R, R86A counted along it
Description: as §1, §2

[4] = target: T3, MRGPRX4 W158A (Homo sapiens, UniProt Q96LA9, L83S/W158A); test: Calcium mobilization assay (FLIPR), MRGPRX4 W158A mutant; assay type: cell-based
T3 construct: expressed in transfected cells; host or cells: HEK293T, transient
T3 sequence (Q96LA9 whole entry L83S/W158A): as the sequence (Q96LA9 whole entry R82A/L83S) above, with A82R, W158A counted along it
Description: as §1
(§3) To generate murine Mrgprs expressing cells, HEK293T cells (ATCC) were seeded on poly-D-lysine coated 96 well plate at 25,000 cells per well one day prior to transfection. HEK293T cells were transiently co-transfected with the mammalian expression plasmids carrying cDNA encoding the murine Mrgpr genes and plasmid inserted with cDNA encoding murine α-subunit of the heterotrimeric G15 protein (Gα15) in triplicates using Lipofectamine LTX reagents (Thermo Scientific). To generate WT, S83L, and alanine mutant MRGPRX4-expressing cells, HEK293T cells were seeded on poly-D-lysine coated 384 well plate at 12,000 cells per well one day prior to transfection. Mammalian expression plasmids pLX304 (vector from Addgene) carrying different MRGPRX4 coding sequences were transiently transfected into HEK293T cells in triplicates with Lipofectamine LTX reagents (Thermo Scientific). Intracellular calcium mobilization assays were performed after one day of transfection. Murine Mrgprs tested include Mrgpra1, Mrgpra2a, Mrgpra2b, Mrgpra3, Mrgpra4, Mrgpra6, Mrgpra9, Mrgpra10, Mrgpra11, Mrgpra12, Mrgpra14, Mrgprb5, Mrgprb6, Mrgprb10, Mrgprb11, and Mrgprc11. WT and mutant MRGPRX4 constructs tested include WT, S83L, R82A, R86A, R95A, W158A, Y250A, and Y254A.
(§4) To generate MRGPRX4 mutant constructs, site-directed mutagenesis was performed using Q5® Site-Directed Mutagenesis Kit (New England Biolabs). The primers were designed by the NEBaseChanger tool, with forward primers spanning designated mutated sequence corresponding to the desired amino acid substitutions. The plasmids with WT MRGPRX4 sequence served as the templates for polymerase chain reaction (PCR) amplification with Q5 high-fidelity polymerase and respective primer pairs according to the manufacturer’s conditions. Then, the linear PCR products underwent phosphorylation, ligation, and simultaneous degradation of template DNA by incubating them with a KLD enzyme mix consisting of T4 polynucleotide kinase, T4 DNA ligase, and DpnI at room temperature for 5 min. Subsequently, the mutated circular plasmids were transformed into NEB 5-alpha competent E. coli by heat-shock method, and the successfully transformed bacteria were selected on LB plates with selection antibiotics. The next day, the transformant colonies were picked, expanded in LB broth containing selection antibiotics overnight. Plasmids were isolated using QIAprep Spin Miniprep Kit (Qiagen) and subjected to sequencing to confirm the mutation.

[5] = target: T4, MRGPRX4 Y250A (Homo sapiens, UniProt Q96LA9, L83S/Y250A); test: Calcium mobilization assay (FLIPR), MRGPRX4 Y250A mutant; assay type: cell-based
T4 construct: expressed in transfected cells; host or cells: HEK293T, transient
T4 sequence (Q96LA9 whole entry L83S/Y250A): as the sequence (Q96LA9 whole entry R82A/L83S) above, with A82R, Y250A counted along it
Description: as §1, §2

[6] = target: T5, MRGPRX4 Y254A (Homo sapiens, UniProt Q96LA9, L83S/Y254A); test: Calcium mobilization assay (FLIPR), MRGPRX4 Y254A mutant; assay type: cell-based
T5 construct: expressed in transfected cells; host or cells: HEK293T, transient
T5 sequence (Q96LA9 whole entry L83S/Y254A): as the sequence (Q96LA9 whole entry R82A/L83S) above, with A82R, Y254A counted along it
Description: as §1, §3, §4

[7] = system: HTLA cells; test: PRESTO-Tango β-arrestin recruitment assay, parental HTLA cells without MRGPRX4 (control, fig. S1); assay type: cell-based
Description: Supplement NIHMS2038790-supplement-table.xlsx, sheet "fig. S1" | column: Concentration (M)

Compound: CC(C)c1cccc(C(C)C)c1OCOP(=O)(O)O [Fospropofol]
- Scratching / itch behavior, NP2-X4+ mice vs WT littermates ([1]; 50 μl 10 mM nape injection, 30 min): significantly increased scratching behavior
- Scratching bouts of individual animals ([1]; NP2-X4+, 30 min after injection of 50 μl 10 mM into the nape, each cell one mouse): 79 (2×) and 60 and 28 and 56 and 5 and 40 and 132 and 49 and 4 and 42 and 59 and 43 and 52
- Calcium mobilization response at alanine mutant R82A vs WT [2]: either greatly attenuated or abolished
- Calcium mobilization response at alanine mutant R86A vs WT [3]: either greatly attenuated or abolished
- Calcium mobilization response at alanine mutant W158A vs WT [4]: disrupted calcium mobilization
- Calcium mobilization response at alanine mutant Y250A vs WT [5]: disrupted calcium mobilization
- Calcium mobilization response at alanine mutant Y254A vs WT [6]: disrupted calcium mobilization
- PRESTO-Tango response (fig. S1), single replicate ([7]; concentration 1.95e-8 M): 0.00694 and 0.004644 and 0.006153 and 0.00965 and 0.002832 and 0.003328 and 0.008458 and 0.007173 and 0.001142
- PRESTO-Tango response (fig. S1), single replicate ([7]; concentration 3.91e-8 M): 0.00458 and 0.005779 and 0.004441 and 0.006153 and 0.01503 and 0.00701 and 0.000445 and 0.01011 and 0.01094
- PRESTO-Tango response (fig. S1), single replicate ([7]; concentration 7.81e-8 M): 0.003343 and 0.006009 and 0.009902 and 0.005737 and 0.003469 and 0.004602 and 0.006927 and 0.00283 and 0.006775
- PRESTO-Tango response (fig. S1), single replicate ([7]; concentration 1.56e-7 M): 0.003508 and 0.005703 and 0.009009 and 0.008984 and 0.006514 and 0.007694 and 0.009731 and 0.002935 and 0.00804
- PRESTO-Tango response (fig. S1), single replicate ([7]; concentration 3.13e-7 M): 0.002922 and 0.004925 and 0.007537 and 0.0115 and 0.004508 and 0.006726 and 0.004052 and 0.005477 and 0.00953
- PRESTO-Tango response (fig. S1), single replicate ([7]; concentration 6.25e-7 M): 0.004976 and 0.01037 and 0.009311 and 0.01735 and 0.01013 and 0.008402 and 0.01193 and 0.01132 and 0.007015
- PRESTO-Tango response (fig. S1), single replicate ([7]; concentration 1.25e-6 M): 0.005116 and 0.008433 and 0.01261 and 0.0248 and 0.006302 and 0.01317 and 0.01357 and 0.000979 and 0.02066
- PRESTO-Tango response (fig. S1), single replicate ([7]; concentration 2.5e-6 M): 0.004708 and 0.01187 and 0.01433 and 0.0357 and 0.005924 and 0.01747 and 0.01767 and 0.01738 and 0.009944
- PRESTO-Tango response (fig. S1), single replicate ([7]; concentration 5e-6 M): 0.006149 and 0.02356 and 0.0209 and 0.04204 and 0.009157 and 0.0186 and 0.01895 and 0.003902 and 0.03736
- PRESTO-Tango response (fig. S1), single replicate ([7]; concentration 1e-5 M): 0.007859 and 0.01771 and 0.01368 and 0.04592 and 0.005971 and 0.02299 and 0.000906 and 0.03405 and 0.02211
- PRESTO-Tango response (fig. S1), single replicate ([7]; concentration 2e-5 M): 0.005575 and 0.02041 and 0.01412 and 0.04838 and 0.01541 and 0.027 and 0.00299 and 0.03805 and 0.0244
